From ChEMBL document CHEMBL1201862, “PubChem BioAssay data set” (2004) come the findings set out here.

Experiment in all cases: DTP human tumour cell line panel, 48 h
For assay [1], the system named is NCI-H522.
In assay [2] the test system is KM12.
Assay [3] relates to ACHN.
The subject of assay [4] is SK-MEL-5.
Assay [5] has as its system NCI/ADR-RES.
The test system of assay [6] is RPMI-8226.
Assay [7] deals with SK-MEL-28.
Assay [8] has as its system SF-268.
The subject of assay [9] is MDA-N.
The test system of assay [10] is UO-31.
Assay [11] deals with SNB-19.
The subject of assay [12] is DU-145.
Assay [13] concerns K562.
Assay [14] concerns U-251.
Assay [15] deals with IGROV-1.
In assay [16] the test system is RXF 393.
For assay [17], the system named is OVCAR-4.
Assay [18] concerns TK-10.
Assay [19] deals with SK-OV-3.
The subject of assay [20] is UACC-62.

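Cells were grown in 96-well plates and exposed to each compound for 48 hours at five concentrations; endpoints were interpolated linearly between bracketing concentrations, or set to the highest concentration if not reached. At the GI50, growth is halved.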 Active and inactive are the calls of the source. Cut-off read from the data, not from the text of the source: active = GI50 up to about 1.1 µM and inactive = higher.

As for `CC(C)(Oc1ccc(-c2cccc3ccccc23)cc1)C(=O)O`, the GI50 (usually the concentration that inhibits growth by half) in assay [1] was > 100 µM (inactive); in assay [2] it was 97.7 µM (inactive); in assay [3], > 100 µM (inactive); in assay [4], 99.5 µM (inactive); in assay [5], > 100 µM (inactive); in [6], > 100 µM (inactive). Besides, the GI50 in assay [7], in assay [8], in [9], in [10], in assay [11] and in assay [12] was > 100 µM (inactive) each time. The GI50 in assay [13] was 1.3 µM (inactive); in assay [14], > 100 µM (inactive); in [15], > 100 µM (inactive); in assay [16] it was > 100 µM (inactive); in [17], > 100 µM (inactive); in [18], > 100 µM (inactive). Besides, the GI50 in assay [19] and in assay [20] was > 100 µM (inactive) each time.
Take `c1ccc(C2=NNC3c4ccccc4-c4ccccc4N3C2)cc1` (stereo not given): the GI50 in [1] was 26.1 µM (inactive); in [2], 37.1 µM (inactive); in assay [3], 31.8 µM (inactive); in assay [4] it was 15.9 µM (inactive); in assay [5] it was 31.8 µM (inactive); in assay [6], 19 µM (inactive). Moreover, the GI50 in [7] was 35.6 µM (inactive); in [8] it was 44.9 µM (inactive); in assay [9], 33.5 µM (inactive); in assay [10], 32.4 µM (inactive); in [11], 40 µM (inactive); in assay [12] it was 40.5 µM (inactive). The GI50 in [13] is 23.9 µM (inactive); in assay [14] it was 26.5 µM (inactive); in assay [15], 31.6 µM (inactive); in [16] it was 40 µM (inactive); in assay [17], 37.9 µM (inactive); in assay [18], 33.7 µM (inactive). Further, the GI50 in [19] is 46.6 µM (inactive); in assay [20], 16.4 µM (inactive).
As for `Cc1cccc2c1CC(C1OC(=O)c3c(C)cccc31)C2=O` (stereo not given), the GI50 was 15.7 µM (inactive) in assay [1]; > 100 µM (inactive) in assay [2]; > 100 µM (inactive) in [3]; > 100 µM (inactive) in [4]; > 100 µM (inactive) in assay [5]; 88.5 µM (inactive) in [6]. In addition, the GI50 in assay [7], in assay [8], in assay [9], in assay [10], in assay [11] and in assay [12] was > 100 µM (inactive) each time. In addition, the GI50 in assay [13], in assay [14], in [15], in assay [16], in assay [17] and in assay [18] was > 100 µM (inactive) each time. The GI50 in [19] and in assay [20] was > 100 µM (inactive) in each case.
Take `O=C(O)c1cc(Cl)cc(Cc2cc(Cl)cc(C(=O)O)c2O)c1O`: the GI50 in assay [1], in assay [2], in [3], in [4], in assay [5] and in assay [6] was > 100 µM (inactive) in each case. Besides, the GI50 in [7], in [8], in assay [9], in assay [10], in assay [11] and in [12] was > 100 µM (inactive) throughout. The GI50 in [13], in assay [14], in assay [15], in assay [16], in [17] and in assay [18] was > 100 µM (inactive) throughout. Further, the GI50 in assay [19] and in assay [20] was > 100 µM (inactive) in each case.
Consider `COC(=O)/C=C\C(C#N)(C#N)/N=C/c1ccsc1`, for which the concentration for 50% growth inhibition (GI50) in assay [1] is 0.662 µM (active); in assay [2], 14.5 µM (inactive); in assay [3], 1.42 µM (inactive); in [4], 4.66 µM (inactive); in assay [5], 2.54 µM (inactive); in assay [6] it was 1.25 µM (inactive). Further, the GI50 was 2.83 µM (inactive) in assay [7]; 15.2 µM (inactive) in assay [8]; 3.83 µM (inactive) in assay [9]; 3.03 µM (inactive) in assay [10]; 14.5 µM (inactive) in [11]; 8.05 µM (inactive) in assay [12]. The GI50 in [13] was 0.525 µM (active); in [14], 15.8 µM (inactive); in [15], 9.08 µM (inactive); in assay [16] it was 1.78 µM (inactive); in assay [17] it was 18.5 µM (inactive); in [18], 2.36 µM (inactive). Also, the results for the GI50 in assay [19] and in [20] were 17.2 µM (inactive) and 4.8 µM (inactive), respectively.
As for `CCOC(=O)c1nc2cc(F)c(N3CCOCC3)cc2[nH]c1=O`, the GI50 in assay [1] is 76 µM (inactive); in assay [2] it was > 100 µM (inactive); in [3] it was > 100 µM (inactive); in assay [4] it was > 100 µM (inactive); in assay [5], > 100 µM (inactive); in assay [6] it was > 100 µM (inactive). Besides, the GI50 in [7] is > 100 µM (inactive); in assay [8], > 100 µM (inactive); in [9] it was > 100 µM (inactive); in assay [10], 65.3 µM (inactive); in assay [11] it was > 100 µM (inactive); in assay [12], > 100 µM (inactive). The GI50 in assay [13] was > 100 µM (inactive); in assay [14], 99.1 µM (inactive); in [15], 80.9 µM (inactive); in assay [16], > 100 µM (inactive); in assay [17], > 100 µM (inactive); in assay [18], > 100 µM (inactive). Besides, the GI50 in [19] and in [20] was > 100 µM (inactive) throughout.
As for `Cc1ccc2c3c1O[C@H]1c4[nH]c5ccccc5c4C[C@@]4(O)[C@@H](C2)N(CC2CC2)CC[C@]314`, the GI50 in assay [1] is 15 µM (inactive); in assay [2] it was 17 µM (inactive); in assay [3], 16.6 µM (inactive); in assay [4], 14.1 µM (inactive); in assay [5], 19.1 µM (inactive); in [6], 11.2 µM (inactive). Moreover, the GI50 in [7] is 12.6 µM (inactive); in assay [8] it was 13.6 µM (inactive); in [9], 16.2 µM (inactive); in assay [10], 13.4 µM (inactive); in assay [11], 16.7 µM (inactive); in assay [12], 16.1 µM (inactive). Further, the GI50 in assay [13] was 15.5 µM (inactive); in [14] it was 14.4 µM (inactive); in [15] it was 17.4 µM (inactive); in [16], 7.38 µM (inactive); in assay [17] it was 0.166 µM (active); in assay [18] it was 17.3 µM (inactive). Also, the GI50 is 16.4 µM (inactive) in assay [19] and 16 µM (inactive) in assay [20].
